# Experimental data as given in patent US10829501B2 (BRISTOL-MYERS SQUIBB COMPANY, priority 2016, dated 2020).
# Structures can show the parent of a compound that is named as a salt.
# Target: ROCK2 (Homo sapiens, UniProt O75116)
# Experiment: ROCK2 kinase inhibition assay (LABCHIP 3000 Reader, FITC peptide substrate);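 also: rho kinase reaction read by separating phosphorylated from unphosphorylated peptide on chip, with inhibition of kinase activity computed per concentration across a dose-response series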
# Conditions: not given
# Chain of ROCK2 (O75116 whole entry, species assumed): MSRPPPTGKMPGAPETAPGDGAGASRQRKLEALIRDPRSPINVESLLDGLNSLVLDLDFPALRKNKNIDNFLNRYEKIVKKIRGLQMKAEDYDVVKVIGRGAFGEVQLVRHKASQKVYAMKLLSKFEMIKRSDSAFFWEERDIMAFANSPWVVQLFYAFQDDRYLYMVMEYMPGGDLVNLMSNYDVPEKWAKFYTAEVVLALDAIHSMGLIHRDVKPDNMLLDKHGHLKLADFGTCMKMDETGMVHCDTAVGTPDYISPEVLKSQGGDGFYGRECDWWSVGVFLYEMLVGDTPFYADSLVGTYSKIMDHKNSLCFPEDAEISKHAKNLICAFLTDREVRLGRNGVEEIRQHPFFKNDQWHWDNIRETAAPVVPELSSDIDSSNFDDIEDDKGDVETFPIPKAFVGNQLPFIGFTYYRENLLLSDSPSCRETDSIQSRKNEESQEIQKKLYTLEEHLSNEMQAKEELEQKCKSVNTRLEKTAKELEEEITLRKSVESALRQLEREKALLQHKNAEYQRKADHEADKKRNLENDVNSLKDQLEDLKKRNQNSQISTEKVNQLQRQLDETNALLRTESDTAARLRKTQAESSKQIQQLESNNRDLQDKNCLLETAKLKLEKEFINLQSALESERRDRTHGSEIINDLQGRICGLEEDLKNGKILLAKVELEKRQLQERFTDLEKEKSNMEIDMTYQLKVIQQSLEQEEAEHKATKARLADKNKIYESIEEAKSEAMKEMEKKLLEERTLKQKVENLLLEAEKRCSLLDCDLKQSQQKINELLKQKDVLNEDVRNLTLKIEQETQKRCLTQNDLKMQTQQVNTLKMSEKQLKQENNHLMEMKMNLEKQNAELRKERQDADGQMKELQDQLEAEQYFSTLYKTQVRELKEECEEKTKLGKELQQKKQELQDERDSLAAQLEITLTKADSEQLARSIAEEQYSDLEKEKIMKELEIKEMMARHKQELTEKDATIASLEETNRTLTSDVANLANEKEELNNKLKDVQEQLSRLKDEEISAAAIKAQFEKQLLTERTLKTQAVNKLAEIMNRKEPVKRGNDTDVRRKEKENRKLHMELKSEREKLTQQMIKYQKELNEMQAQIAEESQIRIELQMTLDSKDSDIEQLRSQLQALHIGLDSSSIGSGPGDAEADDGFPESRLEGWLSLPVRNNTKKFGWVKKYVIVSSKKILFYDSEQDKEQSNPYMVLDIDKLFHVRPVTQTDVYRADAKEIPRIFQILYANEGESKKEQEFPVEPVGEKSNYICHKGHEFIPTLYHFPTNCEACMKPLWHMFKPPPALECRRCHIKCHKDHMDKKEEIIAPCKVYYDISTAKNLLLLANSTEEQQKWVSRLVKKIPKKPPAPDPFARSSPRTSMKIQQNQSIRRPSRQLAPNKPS
row,SMILES,IC50
1,"NC(=O)c1cccnc1O[C@H]1CC2(C[C@H](NC(=O)c3cc(C(F)(F)F)cc4[nH]c(=O)[nH]c34)C2)C1 (stereo partly drawn) [Example 104, N-((aR)-6-((3-carbamoylpyridin-2-yl)oxy)spiro[3.3]heptan-2-yl)-2-oxo-6-(trifluoromethyl)-2,3-dihydro-1H-benzo[d]imidazole-4-carboxamide, trifluoroacetate]",< 5 nM
2,"NC(=O)c1cccnc1O[C@H]1CC2(C[C@H](NC(=O)c3cnn4c(C5CC5)c(OCCC(F)(F)F)ccc34)C2)C1 (stereo partly drawn) [Example 107, N-((aR)-6-((3-carbamoylpyridin-2-yl)oxy)spiro[3.3]heptan-2-yl)-7-cyclopropyl-6-(3,3,3-trifluoropropoxy) pyrazolo[1,5-a]pyridine-3-carboxamide, trifluoroacetate]",5 to 50 nM
3,"CS(=O)(=O)c1cccc(C(=O)N[C@H]2CC3(C2)C[C@H](Oc2ncccc2C(N)=O)C3)c1 (stereo partly drawn) [Example 109, 2-((aR)-6-(3-(methylsulfonyl)benzamido)spiro[3.3]heptan2-- yl)oxy)nicotinamide, trifluoroacetate]",50 to 250 nM
4,"NC(=O)c1cccnc1O[C@H]1CC2(C[C@H](NC(=O)c3cnn4c(CCC(F)(F)F)c(OCCC(F)(F)F)ccc34)C2)C1 (stereo partly drawn) [Example 115, N-((aR)-6-((3-carbamoylpyrdin-2-yl)oxy)spiro[3.3]heptan-2-yl)-6-(3,3,3-trifluoropropoxy)-7-(3,3,3-trifluoropropyl) pyrazolo[1,5-a]pyridine-3-carboxamdie, trifluoroacetate]",5 to 50 nM
5,"NC(=O)c1cccnc1O[C@H]1CC2(C[C@H](NC(=O)c3cnn4cc(CCC(F)(F)F)ccc34)C2)C1 (stereo partly drawn) [Example 118, N-((aR)-6-((3-carbamoylpyridin-2-yl)oxy)spiro[3.3]heptan-2-yl)-6-(3,3,3-trifluoropropyl) pyrazolo[1,5-a[pyridine-3-carboxamide, trifluoroacetate]",5 to 50 nM
6,"NC(=O)c1cccnc1O[C@H]1CC2(C[C@H](NC(=O)c3cnn4cc(OCCn5ccnc5)ccc34)C2)C1 (stereo partly drawn) [Example 120, 6-(2-(1H-imidazol-1-yl)ethoxy)-N-((aR)-6-((3-carbamoylpyridin-2-yl)oxy)spiro[3.3]heptan-2-yl)pyrazolo[1,5-a]pyridine-3-carboxamdie, trifluoroacetate]",5 to 50 nM
7,"NC(=O)c1cccnc1O[C@H]1CC2(C[C@H](NC(=O)c3cnn4cc(OCCCC(F)(F)F)ccc34)C2)C1 (stereo partly drawn) [Example 122, N-((aR)-6-((3-carbamoylpyridin-2-yl)oxy)spiro[3.3]heptan-2-yl)-6-(4,4,4-trifluorobutoxy) pyrazolo[1,5-a]pyridine-3-carboxamide, trifluoroacetate]",5 to 50 nM
8,"NC(=O)c1cccnc1O[C@H]1CC2(C[C@H](NC(=O)c3cnn4cc(OCCOC(F)(F)F)ccc34)C2)C1 (stereo partly drawn) [Example 125, N-((aR)-6-((3-carbamoylpyridin-2-yl)oxy)spiro[3.3]heptan-2-yl)-6-(2-(trifluoromethoxy)ethoxy) pyrazolo[1,5-a] pyridine-3-carboxamide, t rifluoroacetate]",5 to 50 nM
9,"NC(=O)c1cccnc1O[C@H]1CC2(C[C@H](NC(=O)c3csc(-c4ccccn4)n3)C2)C1 (stereo partly drawn) [Example 130, N-((aR)-6-((3-carbamoylpyridin-2-yl)oxy)spiro [3.3]heptan-2-yl)-2-(pyridin-2-yl)thiazole-4-carboxamide, bis-trifluoroacetate]",250 to 2500 nM
10,"CN(c1ccccc1)S(=O)(=O)c1cccc(C(=O)N[C@H]2CC3(C2)C[C@H](Oc2ncccc2C(N)=O)C3)c1 (stereo partly drawn) [Example 131, 2-(((aR)-6-(3-(N-methyl-N-phenylsulfamoyl)benzamido)spiro[3.3]heptan-2-yl)oxy) nicotinamide, trifluoroacetate]",5 to 50 nM
11,"NC(=O)c1cccnc1O[C@H]1CC2(C[C@H](NC(=O)c3nn(Cc4ccccc4)c4ccccc34)C2)C1 (stereo partly drawn) [Example 132, 1-benzyl-N-((aR)-6-((3-carbamoylpyridin-2-yl)oxy)spiro[3.3]heptan-2-yl)-1H-indazole-3-carboxamide, trifluoroacetate]",5 to 50 nM

# The remaining lines, values ahead:
row,IC50,SMILES
1,< 5 nM,"Cn1cc(-c2ccc3c(C(=O)N[C@H]4CC5(C4)C[C@H](Oc4ncccc4C(N)=O)C5)nn(C(F)F)c3c2)cn1 (stereo partly drawn) [Example 106, N-((aR)-6-((3-carbamoylpyridin-2-yl)oxy)spiro[3.3]heptan-2-yl)-1-(difluoromethyl)-6-(1-methyl-1H-pyrazol-4-yl)-1H-indazole-3-carboxamide, trifluoroacetate]"
2,< 5 nM,"CC(C)(O)COc1ccc2c(C(=O)N[C@H]3CC4(C3)C[C@H](Oc3ncccc3C(N)=O)C4)nn(C(F)F)c2c1 (stereo partly drawn) [Example 108, N-((aR)-6-((3-carbamoylpyridin-2-yl)oxy)spiro[3.3]heptan-2-yl)-1-(difluoromethyl)-6-(2-hydroxy-2-methylpropoxy)-1H-indazole-3-carboxamide, trifluoroacetate]"
3,5 to 50 nM,"CC(C)(C)c1ccnc(C(=O)N[C@H]2CC3(C2)C[C@H](Oc2ncccc2C(N)=O)C3)c1 (stereo partly drawn) [Example 110, 4-(tert-butyl)-N-((aR)-6-((3-carbamoylpyridin-2-yl)oxy)spiro[3.3]heptan-2-yl)picolinamide, bis-trifluoroacetate]"
4,< 5 nM,"[2H]C([2H])([2H])n1cc(-c2ccc3c(C(=O)N[C@H]4CC5(C4)C[C@H](Oc4ncccc4C(N)=O)C5)nn(C(F)F)c3c2)cn1 (stereo partly drawn) [Example 111, 1-(difluoromethyl)-6-[1-(^2H3)methyl-1H-pyrazol-4-yl]-N-[(4s)-6-[(3-carbamoylpyridin-2-yl)oxy]spiro[3.3]heptan-2-yl]-1H-indazole-3-carboxamide, trifluoroacetate]"
5,< 5 nM,"NC(=O)c1cccnc1O[C@H]1CC2(C[C@H](NC(=O)c3nn(C(F)F)c4cc(-c5cnn(C(F)F)c5)ccc34)C2)C1 (stereo partly drawn) [Example 112, N-((aR)-6-((3-carbamoylpyridin-2-yl)oxy)spiro[3.3]heptan-2-yl)-1-(difluoromethyl)-6-(1-(difluoromethyl)-1H-pyrazol-4-yl)-1H-indazole-3-caroxamide, trifluoroacettate]"
6,250 to 2500 nM,"CC(C)(C)c1cc(C(=O)N[C@H]2CC3(C2)C[C@H](Oc2ncccc2C(N)=O)C3)n(CC(F)F)n1 (stereo partly drawn) [Example 113, 2-((aR)-6-(3-(tert-butyl)-1-(2,2-difluoroethyl)-1H-pyrazole-5-carboxamido)spiro[3.3]heptan-2-yl)oxy) nicotinamide, trifluoroacetate]"
7,250 to 2500 nM,"CC(C)(C)c1cc(C(=O)N[C@H]2CC3(C2)C[C@H](Oc2ncccc2C(N)=O)C3)n(CCC(F)(F)F)n1 (stereo partly drawn) [Example 114, 2-((aR)-6-(3-(tert-butyl)-1-(3,3,3-trifluoropropyl)-1H-pyrazole-5-carboxamido)spiro [3.3]heptan-2-yl)oxy) nicotinamide, trifluoroacetate]"
8,5 to 50 nM,"COCCOCCOc1ccc2c(C(=O)N[C@H]3CC4(C3)C[C@H](Oc3ncccc3C(N)=O)C4)cnn2c1 (stereo partly drawn) [Example 121, N-((aR)-6-((3-carbamoylpyridin-2-yl)oxy)spiro[3.3]heptan-2-yl)-6-(2-(2-methoxyethoxy)ethoxy)pyrazolo [1,5-a]pyridine-3-carboxamide, trifluoroacetate]"
9,5 to 50 nM,"NC(=O)c1cccnc1O[C@H]1CC2(C[C@H](NC(=O)c3cnn4cc(OCCCN5CCCC5=O)ccc34)C2)C1 (stereo partly drawn) [Example 124, N-((aR)-6-((3-carbamoylpyridin-2-yl)oxy)spiro[3.3]heptan-2-yl)-6-(3-(2-oxopyrrolidin-1-yl)propoxy) pyrazolo[1,5-a]pyridine-3-carboxamide, trifluoroacetate]"
10,< 5 nM,"NC(=O)c1cccnc1O[C@H]1CC2(C[C@H](NC(=O)c3cnn4cc(OCC[C@H]5COC(=O)N5)ccc34)C2)C1 (stereo partly drawn) [Example 126, N-((aR)-6-((3-carbamoylpyridin-2-yl)oxy)spiro[3.3]heptan-2-yl)-6-(2-((S)-2-oxoxazolidin-4-yl)ethoxy) pyrazolo[1,5-a]pyridine-3-carboxamdie, trifluoroacetate]"
11,5 to 50 nM,"CC(C)(O)COc1ccc2c(C(=O)N[C@H]3CC4(C3)C[C@H](Oc3ncccc3C(N)=O)C4)nn(CC(C)(C)O)c2c1 (stereo partly drawn) [Example 127, N-((aR)-6-((3-carbamoylpyridin-2-yl)oxy)spiro[3.3]heptan-2-yl)-6-(2-hydroxy-2-methylpropoxy)-1-(2-hydroxy-2-methylpropyl)-1H-indazole-3-carboxamide, trifluoroacetate]"
12,5 to 50 nM,"Cc1ncsc1CCOc1ccc2c(C(=O)N[C@H]3CC4(C3)C[C@H](Oc3ncccc3C(N)=O)C4)cnn2c1 (stereo partly drawn) [Example 128, N-((aR)-6-((3-carbamoylpyridin-2-yl)oxy)spiro[3.3]heptan-2-yl)-6-(2-(4-methylthiazol-5-yl)ethoxy) pyrazolo[1,5-a]pyridine-3-carboxamide, trifluoroacetate]"

# Same assay, conditions: read-out: ROCK2 Activity (ROCK2 IC50); 5 μM ATP, 1.5 μM peptide substrate, pH 7.5
row,SMILES,IC50
1,"NC(=O)c1cccnc1O[C@H]1CC2(C[C@H](NC(=O)c3nn(C(F)F)c4cc(F)ccc34)C2)C1 (stereo partly drawn) [Example 103, N-((aR)-6-((3-carbamoylpyridin-2-yl)oxy)piro[3.3]heptan-2-yl-1-(difluoromethyl)-6-fluoro-1H-indazole-3-carboxamide, trifluoroacetate]",< 5 nM
2,"NC(=O)c1cccnc1OC1CC2(CC(NC(=O)c3nn(CCC(F)(F)F)c4cc(F)ccc34)C2)C1 [Example 105, N-((aR)-6-((3-carbamoylpyridin-2-yl)oxy)spiro[3.3]heptan-2-yl)-6-fluoro-1-(3,3,3-trifluoropropyl)-1H-indazole-3-carboxamide, trifluoroacetate]",< 5 nM
3,"NC(=O)c1cccnc1OC1CC2(CC(NC(=O)c3nn(CCC(F)(F)F)c4cc(OCCC(F)(F)F)ccc34)C2)C1 [Example 117, N-((aR)-6-((3-carbamoylpyridin-2-yl)oxy)spiro[3.3]heptan-2-yl)-6-(3,3,3-trifluoropropoxy)-1-(3,3,3-trifluoropropyl)-1H-indazole-3-carboxamide, trifluoroacetate]",5 to 50 nM
4,"CS(=O)(=O)c1cc(Br)cc(C(=O)NC2CC3(C2)CC(Oc2ncccc2C(N)=O)C3)c1 [Example 119, 2-((aR)-6-(3-bromo-5-(methylsulfonyl)benzamido)spiro[3.3]heptan-2-yl)oxy) nicotinamide, trifluoroacetate]",5 to 50 nM
